In PubChem BioAssay AID1745844 (Carcinogenic Potency Database (CPDB), 2022):
Active and inactive are the calls of the source. No rule for the calls is given here.

Tested on: rodent lifetime carcinogenesis bioassay, tumor incidence TD50
Assay: chronic cancer bioassays in animals – CPDB, compiled studies (AID 1745844)

## ClCOCCl
mouse, strain Ha/ICR, females, i.p., site: abdomen, lesion: sarcoma, dosed 60 weeks, study length 60 weeks
  TD50: 0.182 mg/kg/day
mouse, strain Ha/ICR, males, inhaled, site: liver, lesion: hepatocellular carcinoma, dosed 26 weeks, study length 108 weeks
  carcinogen call: negative (inactive)
mouse, strain Ha/ICR, males, inhaled, site: liver, lesion: several types, types named in the paper, dosed 26 weeks, study length 108 weeks
  carcinogen call: negative (inactive)
mouse, strain Ha/ICR, males, inhaled, site: lung, lesion: adenoma, dosed 26 weeks, study length 108 weeks
  TD50: 1.26 mg/kg/day
mouse, strain Ha/ICR, males, inhaled, site: lung, lesion: several types, types named in the paper, dosed 26 weeks, study length 108 weeks
  TD50: 1.16 mg/kg/day
rat, strain Sprague-Dawley Spartan, males, inhaled, site: any site (literature study), lesion: several types, types named in the paper, dosed 26 weeks, study length 121 weeks
  TD50: 0.00234 mg/kg/day
rat, strain Sprague-Dawley Spartan, males, inhaled, site: liver, lesion: hepatocellular tumor, benign, dosed 26 weeks, study length 121 weeks
  carcinogen call: negative (inactive)
rat, strain Sprague-Dawley Spartan, males, inhaled, site: lung, lesion: adenoma, dosed 26 weeks, study length 121 weeks
  TD50: 0.196 mg/kg/day
rat, strain Sprague-Dawley Spartan, males, inhaled, site: nasal passageway, lesion: carcinoma, dosed 26 weeks, study length 121 weeks
  TD50: 0.795 mg/kg/day
rat, strain Sprague-Dawley Spartan, males, inhaled, site: nasal passageway, lesion: esthesioneuroepithelioma, dosed 26 weeks, study length 121 weeks
  TD50: 0.00357 mg/kg/day

## CCCCN(N)CCCC
mouse, strain Swiss albino, females, in drinking water, site: forestomach, lesion: several types, types named in the paper, dosed 109 weeks, study length 109 weeks
  TD50: 71.5 mg/kg/day
mouse, strain Swiss albino, females, in drinking water, site: forestomach, lesion: squamous-cell carcinoma, dosed 109 weeks, study length 109 weeks
  TD50: 152 mg/kg/day
mouse, strain Swiss albino, females, in drinking water, site: forestomach, lesion: squamous-cell papilloma, dosed 109 weeks, study length 109 weeks
  TD50: 95.9 mg/kg/day
mouse, strain Swiss albino, females, in drinking water, site: liver, lesion: angioma, dosed 109 weeks, study length 109 weeks
  carcinogen call: negative (inactive)
mouse, strain Swiss albino, females, in drinking water, site: lung, lesion: adenocarcinoma, dosed 109 weeks, study length 109 weeks
  TD50: 133 mg/kg/day
mouse, strain Swiss albino, females, in drinking water, site: lung, lesion: adenoma, dosed 109 weeks, study length 109 weeks
  TD50: 51.5 mg/kg/day
mouse, strain Swiss albino, females, in drinking water, site: lung, lesion: several types, types named in the paper, dosed 109 weeks, study length 109 weeks
  TD50: 55.5 mg/kg/day
mouse, strain Swiss albino, males, in drinking water, site: forestomach, lesion: several types, types named in the paper, dosed 109 weeks, study length 109 weeks
  TD50: 84.2 mg/kg/day
mouse, strain Swiss albino, males, in drinking water, site: forestomach, lesion: squamous-cell carcinoma, dosed 109 weeks, study length 109 weeks
  TD50: 317 mg/kg/day
mouse, strain Swiss albino, males, in drinking water, site: forestomach, lesion: squamous-cell papilloma, dosed 109 weeks, study length 109 weeks
  TD50: 109 mg/kg/day
mouse, strain Swiss albino, males, in drinking water, site: liver, lesion: hepatoma, benign, dosed 109 weeks, study length 109 weeks
  TD50: 189 mg/kg/day
mouse, strain Swiss albino, males, in drinking water, site: liver, lesion: several types, types named in the paper, dosed 109 weeks, study length 109 weeks
  TD50: 105 mg/kg/day
mouse, strain Swiss albino, males, in drinking water, site: lung, lesion: adenocarcinoma, dosed 109 weeks, study length 109 weeks
  TD50: 82.3 mg/kg/day
mouse, strain Swiss albino, males, in drinking water, site: lung, lesion: adenoma, dosed 109 weeks, study length 109 weeks
  TD50: 44.9 mg/kg/day
mouse, strain Swiss albino, males, in drinking water, site: lung, lesion: several types, types named in the paper, dosed 109 weeks, study length 109 weeks
  TD50: 38.1 mg/kg/day

## c1ccc(C2CO2)cc1 (stereo unspecified)
mouse, strain B6C3F1, females, by gavage, site: forestomach, lesion: several types, types named in the paper, dosed 104 weeks, study length 107 weeks
  TD50: 172 mg/kg/day
mouse, strain B6C3F1, females, by gavage, site: forestomach, lesion: squamous-cell carcinoma, dosed 104 weeks, study length 107 weeks
  TD50: 505 mg/kg/day
mouse, strain B6C3F1, females, by gavage, site: forestomach, lesion: squamous-cell papilloma, dosed 104 weeks, study length 107 weeks
  TD50: 460 mg/kg/day
mouse, strain B6C3F1, females, by gavage, site: liver, lesion: several types, types named in the paper, dosed 104 weeks, study length 107 weeks
  TD50: 5960 mg/kg/day
mouse, strain B6C3F1, males, by gavage, site: forestomach, lesion: several types, types named in the paper, dosed 104 weeks, study length 107 weeks
  TD50: 90 mg/kg/day
mouse, strain B6C3F1, males, by gavage, site: forestomach, lesion: squamous-cell carcinoma, dosed 104 weeks, study length 107 weeks
  TD50: 475 mg/kg/day
mouse, strain B6C3F1, males, by gavage, site: forestomach, lesion: squamous-cell papilloma, dosed 104 weeks, study length 107 weeks
  TD50: 215 mg/kg/day
mouse, strain B6C3F1, males, by gavage, site: liver, lesion: several types, types named in the paper, dosed 104 weeks, study length 107 weeks
  TD50: 223 mg/kg/day
rat, strain Fischer 344, females, by gavage, site: forestomach, lesion: several types, types named in the paper, dosed 104 weeks, study length 107 weeks
  TD50: 42.9 mg/kg/day
rat, strain Fischer 344, females, by gavage, site: forestomach, lesion: squamous-cell carcinoma, dosed 104 weeks, study length 107 weeks
  TD50: 114 mg/kg/day
rat, strain Fischer 344, females, by gavage, site: forestomach, lesion: squamous-cell papilloma, dosed 104 weeks, study length 107 weeks
  TD50: 217 mg/kg/day
rat, strain Fischer 344, males, by gavage, site: forestomach, lesion: several types, types named in the paper, dosed 104 weeks, study length 107 weeks
  TD50: 30.7 mg/kg/day
rat, strain Fischer 344, males, by gavage, site: forestomach, lesion: squamous-cell carcinoma, dosed 104 weeks, study length 107 weeks
  TD50: 81.6 mg/kg/day
rat, strain Fischer 344, males, by gavage, site: forestomach, lesion: squamous-cell papilloma, dosed 104 weeks, study length 107 weeks
  TD50: 146 mg/kg/day
rat, strain Fischer 344, males, by gavage, site: liver, lesion: neoplastic nodule, dosed 104 weeks, study length 107 weeks
  TD50: 10300 mg/kg/day
rat, strain Sprague-Dawley, females, by gavage, site: any site (literature study), lesion: malignant tumor, dosed 52 weeks, study length 156 weeks
  TD50: 166 mg/kg/day
rat, strain Sprague-Dawley, females, by gavage, site: any site (literature study), lesion: several types, types named in the paper, dosed 52 weeks, study length 156 weeks
  TD50: 164 mg/kg/day
rat, strain Sprague-Dawley, females, by gavage, site: forestomach, lesion: benign tumor, dosed 52 weeks, study length 156 weeks
  TD50: 503 mg/kg/day
rat, strain Sprague-Dawley, females, by gavage, site: forestomach, lesion: several types, types named in the paper, dosed 52 weeks, study length 156 weeks
  TD50: 96.5 mg/kg/day
rat, strain Sprague-Dawley, females, by gavage, site: forestomach, lesion: squamous-cell carcinoma, in situ, dosed 52 weeks, study length 156 weeks
  TD50: 129 mg/kg/day
rat, strain Sprague-Dawley, females, by gavage, site: forestomach, lesion: squamous-cell carcinoma, invasive, dosed 52 weeks, study length 156 weeks
  TD50: 301 mg/kg/day
rat, strain Sprague-Dawley, females, by gavage, site: forestomach, lesion: squamous-cell carcinoma, dosed 52 weeks, study length 156 weeks
  TD50: 102 mg/kg/day
rat, strain Sprague-Dawley, males, by gavage, site: any site (literature study), lesion: malignant tumor, dosed 52 weeks, study length 156 weeks
  TD50: 189 mg/kg/day
rat, strain Sprague-Dawley, males, by gavage, site: any site (literature study), lesion: several types, types named in the paper, dosed 52 weeks, study length 156 weeks
  TD50: 191 mg/kg/day
rat, strain Sprague-Dawley, males, by gavage, site: forestomach, lesion: benign tumor, dosed 52 weeks, study length 156 weeks
  TD50: 354 mg/kg/day
rat, strain Sprague-Dawley, males, by gavage, site: forestomach, lesion: several types, types named in the paper, dosed 52 weeks, study length 156 weeks
  TD50: 99.6 mg/kg/day
rat, strain Sprague-Dawley, males, by gavage, site: forestomach, lesion: squamous-cell carcinoma, in situ, dosed 52 weeks, study length 156 weeks
  TD50: 140 mg/kg/day
rat, strain Sprague-Dawley, males, by gavage, site: forestomach, lesion: squamous-cell carcinoma, invasive, dosed 52 weeks, study length 156 weeks
  TD50: 267 mg/kg/day
rat, strain Sprague-Dawley, males, by gavage, site: forestomach, lesion: squamous-cell carcinoma, dosed 52 weeks, study length 156 weeks
  TD50: 63 mg/kg/day

## CCOC(=O)/C=C\C(=O)OCC
rat, strain F344/DuCrj, males, in feed, site: forestomach, lesion: one or several types, types not named, dosed 51 weeks, study length 52 weeks
  carcinogen call: negative (inactive)
rat, strain F344/DuCrj, males, in feed, site: forestomach, lesion: squamous-cell papilloma, dosed 104 weeks, study length 104 weeks
  TD50: 1070 mg/kg/day
rat, strain F344/DuCrj, males, in feed, site: stomach, glandular, lesion: one or several types, types not named, dosed 51 weeks, study length 52 weeks
  carcinogen call: negative (inactive)

## FC(F)OC(F)(F)C(F)Cl (stereo unspecified)
mouse, strain Swiss/ICR, females, inhaled, site: liver, lesion: one or several types, types not named, dosed 52 weeks, study length 52 weeks
  carcinogen call: negative (inactive)
mouse, strain Swiss/ICR, females, inhaled, site: liver, lesion: several types, types named in the paper, dosed 78 weeks, study length 82 weeks
  carcinogen call: negative (inactive)
mouse, strain Swiss/ICR, females, inhaled, site: lung, lesion: adenoma, dosed 52 weeks, study length 52 weeks
  TD50: 8930 mg/kg/day (inactive)
mouse, strain Swiss/ICR, females, inhaled, site: lung, lesion: adenoma, dosed 78 weeks, study length 82 weeks
  TD50: 18900 mg/kg/day (inactive)
mouse, strain Swiss/ICR, males, inhaled, site: liver, lesion: several types, types named in the paper, dosed 52 weeks, study length 52 weeks
  TD50: 8120 mg/kg/day (inactive)
mouse, strain Swiss/ICR, males, inhaled, site: liver, lesion: several types, types named in the paper, dosed 78 weeks, study length 82 weeks
  TD50: 11700 mg/kg/day (inactive)
mouse, strain Swiss/ICR, males, inhaled, site: lung, lesion: adenoma, dosed 52 weeks, study length 52 weeks
  carcinogen call: negative (inactive)
mouse, strain Swiss/ICR, males, inhaled, site: lung, lesion: adenoma, dosed 78 weeks, study length 82 weeks
  TD50: 60900 mg/kg/day (inactive)

## O=NN1CCCC[C@H]1c1cccnc1
rat, strain Chester Beatty albino, females, in drinking water, site: esophagus, lesion: benign tumor, dosed 73 weeks, study length 73 weeks
  TD50: 17.7 mg/kg/day
rat, strain Chester Beatty albino, females, in drinking water, site: esophagus, lesion: several types, types named in the paper, dosed 73 weeks, study length 73 weeks
  TD50: 12.9 mg/kg/day
rat, strain Chester Beatty albino, females, in drinking water, site: esophagus, lesion: squamous-cell carcinoma, dosed 73 weeks, study length 73 weeks
  TD50: 413 mg/kg/day
rat, strain Chester Beatty albino, males, in drinking water, site: esophagus, lesion: benign tumor, dosed 73 weeks, study length 73 weeks
  TD50: 28.1 mg/kg/day
rat, strain Chester Beatty albino, males, in drinking water, site: esophagus, lesion: several types, types named in the paper, dosed 73 weeks, study length 73 weeks
  TD50: 11 mg/kg/day
rat, strain Chester Beatty albino, males, in drinking water, site: esophagus, lesion: squamous-cell carcinoma, dosed 73 weeks, study length 73 weeks
  TD50: 86 mg/kg/day
